Assay results: ChEMBL document CHEMBL4706603, “Discovery of VEGFR-2 inhibitors exerting significant anticancer activity against CD44+ and CD133+ cancer stem cells (CSCs): Reversal of TGF-β induced epithelial-mesenchymal transition (EMT) in hepatocellular carcinoma” (Eur J Med Chem, 2020)

Experiments:
[1] = test system: MCF7; test: Cytotoxicity against human MCF7 cells assessed as reduction in cell viability incubated for 24 hrs by MTT assay; format: functional, cell-based; details: for IC50: MCF7, 24 h
[2] = test system: Chorioallantoic membrane; test: Antiangiogenic activity in chicken fertilized egg chorioallantoic membrane measured upto 72 hrs by CAM assay; format: functional, tissue-based; details: Gallus gallus, dose 0.01-2 µM, time hrs <=72
[3] = test system: MDA-MB-231; test: Induction of apoptosis in human MDA-MB-231 cells assessed as early apoptotic cells at IC50 incubated for 72 hrs by Alexa Fluor488-annexin V/PI staining based flow cytometric analysis (Rvb= 0.6 %); format: functional
[4] = test system: MDA-MB-231; test: Cytotoxicity against human MDA-MB-231 cells assessed as reduction in cell viability incubated for 24 hrs by MTT assay; format: functional, cell-based; details: for IC50: MDA-MB-231, 24 h
[5] = test system: MDA-MB-231; test: Induction of apoptosis in human MDA-MB-231 cells assessed as viable cells at IC50 incubated for 72 hrs by Alexa Fluor488-annexin V/PI staining based flow cytometric analysis (Rvb= 99.4 %); format: functional
[6] = test system: HepG2; test: Cytotoxicity against human HepG2 cells assessed as reduction in cell viability incubated for 24 hrs by MTT assay; format: functional, cell-based; details: for IC50: HepG2, 24 h
[7] = test system: MDA-MB-231; test: Induction of apoptosis in human MDA-MB-231 cells assessed as late apoptotic cells at IC50 incubated for 72 hrs by Alexa Fluor488-annexin V/PI staining based flow cytometric analysis (Rvb= 0.0 %); format: functional
[8] = test system: MDA-MB-231; test: Induction of apoptosis in human MDA-MB-231 cells assessed as necrotic cells at IC50 incubated for 72 hrs by Alexa Fluor488-annexin V/PI staining based flow cytometric analysis (Rvb= 0.0 %); format: functional
[9] = Inhibition of VEGFR2 expression in human HUVEC assessed as mean fluorescence intensity at IC50 incubated for 48 hrs by FITC based flow cytometry analysis (reference value: 49.24 +/- 0.47); format: functional
[10] = test system: HUVEC; test: Antiproliferative activity against human HUVEC assessed as reduction in cell viability incubated for 24 hrs by MTT assay; format: functional, cell-based
[11] = test system: HUVEC; test: Induction of apoptosis in human HUVEC assessed as early apoptotic cells at IC50 incubated for 48 hrs by annexin V-FITC and PI staining based flow cytometry (reference value: <1%); format: functional
[12] = Inhibition of VEGF expression in human HUVEC assessed as mean fluorescence intensity at IC50 incubated for 48 hrs by FITC based flow cytometry analysis (reference value: 53.91+/- 0.95); format: functional
[13] = test system: HUVEC; test: Induction of apoptosis in human HUVEC assessed as late apoptotic cells at IC50 incubated for 48 hrs by annexin V-FITC and PI staining based flow cytometry; format: functional
[14] = Inhibition of VEGFR2 expression in human HUVEC assessed as mean fluorescence intensity at IC50 incubated for 48 hrs by fluorescence microscopic analysis (reference value: 1.448 +/- 0.01); format: functional

Question: For `O=C(Nc1ccc(Cl)c(C(F)(F)F)c1)Nc1cccc2c(Oc3ccc([N+](=O)[O-])cc3)cccc12`, which inhibition [1] is on record?
Answer: Its inhibition is “Dose-dependent effect”.

Question: What about the IC50 [1] of the same compound?
Answer: Its IC50 is 953 nM.

Question: Which inhibition [1] does the source give for `O=C(Nc1cccc(C(F)(F)F)c1)Nc1cccc2c(Oc3ccc([N+](=O)[O-])cc3)cccc12` here?
Answer: Its inhibition is “Dose-dependent effect”.

Question: And the IC50 [1]?
Answer: The IC50 was 953 nM.

Question: For `COc1ccc(NC(=O)Nc2cccc3c(Oc4ccc([N+](=O)[O-])cc4)cccc23)cc1`, which inhibition [1] is on record?
Answer: The inhibition was “Dose-dependent effect”.

Question: Which results are given for `CC(=O)Nc1ccc(Oc2cccc3c(NC(=O)Nc4ccccc4)cccc23)cc1`?
Answer: inhibition [1]: Dose-dependent effect; Activity [2]: Dose-dependent effect; Activity [3]: 46.37%; inhibition [4]: Dose-dependent effect; IC50 [4]: 1410 nM; Activity [5]: 21.2%; inhibition [6]: Dose-dependent effect; IC50 [6]: 258 nM; Activity [7]: 27.4%; Activity [8]: 4.5%

Question: For `CNC(=O)c1cc(Oc2ccc(NC(=O)Nc3ccc(Cl)c(C(F)(F)F)c3)cc2)ccn1.Cc1ccc(S(=O)(=O)O)cc1` [SORAFENIB TOSYLATE], which IC50 [1] is on record?
Answer: The IC50 was 1380 nM.

Question: And the IC50 [4]?
Answer: The IC50 was 349 nM.

Question: And the Flu intensity [9]?
Answer: The Flu intensity was 6.45.

Question: And the IC50 [10]?
Answer: Its IC50 is 1950 nM.

Question: What about the IC50 [6] of the same compound?
Answer: Its IC50 is 215 nM.

Question: And the Activity [11]?
Answer: Its Activity is 24.5%.

Question: What about the Flu intensity [12] of the same compound?
Answer: The Flu intensity was 7.14.

Question: What about the Activity [13] of the same compound?
Answer: The Activity was 25.6%.

Question: What about the Flu intensity [14] of the same compound?
Answer: The Flu intensity was 1.1.

Question: With `O=C(Nc1ccccc1)Nc1cccc2c(O)cccc12` as the compound, how does the inhibition [1] read?
Answer: Its inhibition is “Dose-dependent effect”.

Question: Which inhibition [1] does the source give for `O=C(Nc1ccccc1)Nc1cccc2c(Oc3ccc([N+](=O)[O-])cc3)cccc12` here?
Answer: Its inhibition is “Dose-dependent effect”.

Question: And the IC50 [1]?
Answer: Its IC50 is 953 nM.

Question: For `O=C(Nc1cccc(C(F)(F)F)c1)Nc1cccc2c(O)cccc12`, which inhibition [1] is on record?
Answer: The inhibition was “Dose-dependent effect”.

Question: And the IC50 [1]?
Answer: The IC50 was 953 nM.

Question: What does the source list for `CC(=O)Nc1ccc(Oc2cccc3c(NC(=O)Nc4ccc(Cl)c(C(F)(F)F)c4)cccc23)cc1`?
Answer: inhibition [1]: Dose-dependent effect; Activity [2]: Dose-dependent effect; Activity [3]: 47%; inhibition [4]: Dose-dependent effect; IC50 [4]: 1410 nM; Activity [5]: 20.9%; inhibition [6]: Dose-dependent effect; IC50 [6]: 258 nM; Activity [7]: 27.5%; Activity [8]: 4.6%
